In assay [1] the target is T1, matrix metalloproteinase-9 (Homo sapiens, UniProt P14780). The assay can be described thus: Inhibition test of matrix metalloproteinase-9 activity (fluorogenic substrate, activated pro-MMP-9).
Description: (§1) Step 1: Activation of Pro-Matrix Metalloproteinase-9
(§2) 100 nM APMA (final concentration 1 M) as added to a 10 μg/ml of pro-matrix metalloproteinase-9 solution (R&D), and reacted in a 37° C. incubator for 2 hours to convert pro matrix metalloproteinase-9 to activated pro-matrix metalloproteinase-9
(§3) The activated pro-matrix metalloproteinase-9 was diluted with matrix metalloproteinase-9 activity analysis buffer (50 mM Tris, 10 mM CaCl2, 150 mM NaCl, 0.05% Brij-35(w/v), pH 7.5) to a concentration of 10 ng/ml. Activated pro-matrix metalloproteinase-9 was added to each test sample and placed in a 37° C. incubator for reaction for 2 or 24 hours. The negative control group contained no activated pro-matrix metalloproteinase-9 solution to test the response of the sample, and positive control added metalloproteinase-9 activity inhibitor, 1,10-Phenanthroline (1,10-PT) (final concentration: 0.1 mM), to the activated pro-matrix metalloproteinase-9 solution.
(§4) Step 3: Analysis for Matrix Metalloproteinase-9
(§5) The activated pro-matrix metalloproteinase-9 solution after being reacted with the material was taken in a 96-well black plate. Equal volume of substrate for matrix metalloproteinase-9 was added to the 96-well black plate and reacted in a 37° C. incubator for 0.5-1 hour, and then the fluorescence (Ex/Em=320/405 nm) of the reaction was determined by a high sensitivity fluorescence reader (Flexstation3).
Assay [2] deals with T1, matrix metalloproteinase-9.
Description: as §1, §2, §3, §4, §5
Assay [3] has as its target T1, matrix metalloproteinase-9. The source holds these as a separate data set.
Description: as §3, §5

The source of these data is US20160113905A1, “Polymer composition and polymer material” (INDUSTRIAL TECHNOLOGY RESEARCH INSTITUTE, priority 2012, published 2016).

Several values for one entry are separate records, joined by “and”; a condition that tells them apart may be missing. Equal entries are not always repeated. Where two headings read alike, the source gives them in different places.

T1 sequence (P14780 107-707 limits assumed, species assumed): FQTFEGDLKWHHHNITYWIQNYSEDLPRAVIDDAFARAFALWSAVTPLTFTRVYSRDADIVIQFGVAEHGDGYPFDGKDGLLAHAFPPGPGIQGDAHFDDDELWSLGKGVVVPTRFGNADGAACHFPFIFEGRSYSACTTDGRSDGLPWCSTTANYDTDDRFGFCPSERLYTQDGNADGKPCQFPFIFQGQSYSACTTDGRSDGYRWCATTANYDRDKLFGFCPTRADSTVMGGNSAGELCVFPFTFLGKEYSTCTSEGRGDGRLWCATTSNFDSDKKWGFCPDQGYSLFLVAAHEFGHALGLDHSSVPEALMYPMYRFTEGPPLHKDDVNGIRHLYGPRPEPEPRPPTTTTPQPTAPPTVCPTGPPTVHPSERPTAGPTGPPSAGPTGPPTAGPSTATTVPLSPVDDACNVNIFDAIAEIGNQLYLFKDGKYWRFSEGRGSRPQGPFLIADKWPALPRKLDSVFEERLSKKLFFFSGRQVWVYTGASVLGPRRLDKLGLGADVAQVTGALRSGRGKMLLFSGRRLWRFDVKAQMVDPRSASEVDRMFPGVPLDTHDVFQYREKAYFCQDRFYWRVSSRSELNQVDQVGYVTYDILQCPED

For the compound `CC(C)(C)OC(=O)N[C@@H](Cc1c[nH]cn1)C(=O)O` [BocHis, Boc-histidine, reference compound], the half-maximal inhibitory concentration (IC50) (usually the concentration needed to halve the response being measured) in assay [1] is 10.3 mM. The inhibition (as a rule, the share of the control response that was lost under treatment) in assay [2] was found to be 76.8%. The compound “histidine grafted-hydroxypropyl methylcellulose derivative [Lot 5]” gave an inhibition in assay [2] of 33.2%. The same measure, in the same setting: then “histidine grafted-hydroxypropyl methylcellulose derivative [Lot 6]”, with 42.4% and 37.3%; and “histidine grafted-hydroxypropyl methylcellulose derivative [Lot 7]”, with 36.4%. For the compound “histidine grafted-poly(ethylene vinyl-co-alcohol) derivative [EVOH-g-BocHis]”, the inhibition in assay [3] was 26.2% and 22.9%. For “histidine grafted-poly(ethylene vinyl-co-alcohol) derivative [Lot 3]”, the inhibition in assay [2] was found to be 43.7%.

For “histidine grafted-poly(ethylene vinyl-co-alcohol) derivative [Lot 4]”, the inhibition in assay [2] was 38.2%. The same measure, in the same setting: then “histidine grafted-polyvinyl alcohol derivative [Lot 2]”, with 41%.
